Like-named read-outs stand apart in the source and are kept apart here. Values belong to the molecule of their own block, whether it stands above or below them.
Legend:
[1] = system: human articular chondrocytes (HAC)
Experimental: (§1) Articular cartilage biopsies were harvested with ethics approval from a consenting patient. The cartilage was diced into 1 to 2 mm cubes and digested overnight at 37° C. with 0.15% w/v collagenase type II in basic chondrocyte media (DMEM high glucose media supplemented with 10% FCS, 10 mM HEPES, 0.2 mM L-ascorbic acid-2-phosphate, 0.4 mM L-proline and 1% PS). The resulting suspension was filtered through a 100-μm cell strainer (BD Biosciences) to exclude the undigested tissue and centrifuged at 700-g for 4 min. The isolated chondrocytes (HAC) were cultured in basic chondrocyte media and expanded at 37° C. in a humidified 5% CO2/95% air incubator.
(§2) HAC in culture flasks were trypsinised, suspended in basic chondrocyte media, and seeded in 48 well plates at a concentration of 50 HACs/mm^2. The cells were firstly allowed to attach to the surface for 4 hours, then exposed to either 30 mW/cm^2 of UV or visible light (15 minutes), with or without 0.05 wt % of 12959 or 0.2/2 Ru/SPS (mM) respectively. […] After 1 and 7 days, the cells were visualised and quantified using the live/dead assay. […]
(§3) The cells will stain green if alive and red if dead. After staining, the gels were washed with PBS for three times before imaging them using a fluorescence microscope (Zeiss axioimager Z1). The cells were quantified using the ImageJ software and the cell viability was calculated using the equation below:

[2] = Deformation of thickness (oxygen inhibition) of Gel-MA/collagen hydrogel; assay type: physicochemical; settings: Gel-MA+Collagen 1 discs
Experimental: The constructs were then irradiated for 15 minutes in the presences of a photo-initiator and a light source, where the surfaces of the constructs were exposed to oxygen. In a first experiment, the light intensity was kept at 3 mW/cm^2 whereas the photo-initiator concentrations were varied from 0.05 to 0.5 wt % and 0.2/2 mM to 2/20 mM for 12959 and Ru/SPS respectively. In a second experiment the light intensity was varied from 3 to 100 mW/cm^2 while keeping the photo-initiator concentrations constant at 0.05 wt % and 0.2/2 mM for 12959 and Ru/SPS respectively. The level of oxygen inhibition was characterised as the deformation of thickness before (to) and after equilibrium swelling (ts). The deformation of thickness is given by the equation: Deformation of thickness=[(t0−ts)/t0]×100.

[3] = system: Breast adenocarcinoma cells (MCF-7)
Experimental: A live/dead assay was performed after 1 day to evaluate the viability of encapsulated MCF-7 cells.

[4] = system: human articular chondrocytes (HAC); test: Photo-toxicity and radical toxicity evaluation, HAC on 2D surfaces; settings: 7 days post treatment, light plus initiator
Experimental: as §1, §2, §3

[5] = system: human articular chondrocytes (HAC); test: GAG assay of HAC encapsulated in Gel-MA hydrogels; assay type: cell-based; settings: at 21 days
Experimental: Cell-laden Gel-MA samples were digested overnight in 200 μL of 1 mg/ml proteinase-K solution at 56° C. In order to quantify the amount of GAG retained in the gel, the digested samples were reacted with DMMB. The absorbance of the samples was then measured at 492 nm (Fluostar Galaxy BMG Labtechnology). The GAG concentrations were calculated from a standard curve constructed using known concentrations of CS-A. The amount of DNA in the gels was measured using the CyQUANT kit. The cells in the digested samples were firstly lysed and RNA degraded using the provided lysis buffer with RNase A (1.35 KU/ml) added for 1 hour at RT. GR-dye solution was then added to the samples, incubated at RT for 15 minutes then the fluorescence was measured (Fluostar Galaxy BMG Labtechnology). A standard curve was constructed using the DNA provided in the kit.

[6] = system: human ovarian adenocarcinoma cell lines (SKOV3); test: cells; settings: SK-OV-3, 96 h
Experimental: (§4) Experiments were carried out with human ovarian adenocarcinoma cell lines (SKOV3) and normal human foreskin fibroblasts (HFF). […] Cells were expanded at 37° C. in a humidified 5% CO2/95% air incubator and media was changed twice a week.
(§5) Each cell encapsulated microspheres was then transferred to well in a 96-well polystyrene plate (Falcon). 150 μL of cell culture media was then pipetted into the wells and placed in the incubator and the media was changed twice a week.

[7] = system: co-culture (75% SKOV3 and 25% HFF) cells
[8] = system: human ovarian adenocarcinoma cell lines (SKOV3)
Experimental: as §4, §5

[9] = system: normal human foreskin fibroblasts (HFF); settings: Fibroblast
[10] = system: assembled cancer construct; test: Darkfield images of doxorubicin-treated cancer construct; assay type: cell-based, human
Excerpt: To print the assembled construct (n=3) a layer-by-layer approach was opted so as to not limit the height of the scaffold that can be constructed using the system. In this scheme the first layer of the scaffold (8 layers of fibre strands) was printed (as described earlier) and then 4 (2×2 fashion) live microspheres were inserted into the pores of the 3D plotted scaffold. This process was repeated to generate a second layer of the scaffold (4 layers of fibre strands) and then 4 more microspheres were inserted into the scaffold. But for the manually assembled scaffold, the whole scaffold was printed at once and the micro-tissues were inserted manually into pre-printed scaffolds in a similar format to the ones assembled with the automated system.
The cytotoxicity test was used to evaluate in vitro antitumor activity of Doxorubicin on cells in 2D, microspheres and assembled cancer construct. […] On day 1 of forming the microspheres, SKOV3, HFF and co-culture cancer constructs were manually assembled and transferred to a 24-well plate with 1.2 ml of media per well. On day 7, for the cytotoxicity test on 2D model, SKOV3s, HFFs and co-culture (75% SKOV3 and 25% HFF) cells were seeded onto a 48-well plate at 30,000 cells and 200 μl of media per well. […] Media with 5% FBS containing the specific concentration of drug was changed every 2 days. […]

[11] = system: co-culture (75% SKOV3 and 25% HFF) cells; test: cells; settings: Homo sapiens, 96 h
[12] = system: normal human foreskin fibroblasts (HFF); test: cells; settings: Fibroblast, 96 h
[13] = read-out: IC50 Assembled construct

Structure (SMILES): CC(C)(O)C(=O)c1ccc(OCCO)cc1 [UV+I2959, 1-[4-(2-hydroxyethoxy)-phenyl]-2-hydroxy-2-methyl-1-propane-1-one]
number of cells attached [1]: 20 HACs/mm^2
reduction of thickness (deformation of thickness) ([2]; 3 mW/cm^2, 0.05 wt % I2959 or 0.2/2 Ru/SPS (mM)): ~55%
deformation of thickness ([2]; 3 mW/cm^2, 0.5 wt % I2959 or 2/20 Ru/SPS (mM), controls without oxygen <10%): comparable to the controls
cell viability [3]: 50%
cell morphology (live-dead stain) [4]: the cells became rounded
GAG/gel [5]: 0.1 µg/mg

IC50 ([6]; read-out: IC50 2D): 50 nM
IC50 [6, 13]: 2410 nM
IC50 ([6]; read-out: IC50 Microspheres): 150 nM
Fold change in IC50 Assembled construct/microspheres [8]: 16.33
Fold change in IC50 Assembled construct/monolayer [8]: 48.32
Fold change in IC50 Microspheres/monolayer [8]: 2.96
Structure (SMILES): COc1cccc2c1C(=O)c1c(O)c3c(c(O)c1C2=O)C[C@@](O)(C(=O)CO)C[C@@H]3O[C@H]1C[C@H](N)[C@H](O)[C@H](C)O1 [doxorubicin, Doxorubicin]
Fold change in IC50 Assembled construct/microspheres [7]: 19.34
Fold change in IC50 Assembled construct/monolayer [7]: 70.14
Fold change in IC50 Microspheres/monolayer [7]: 3.63
Fold change in IC50 Assembled construct/microspheres [9]: 21.41
Fold change in IC50 Assembled construct/monolayer [9]: 24.32
Fold change in IC50 Microspheres/monolayer [9]: 1.14
tissue present in cancer construct (darkfield images) ([10]; 1 μM drug): atrophy of the tissue
tissue present in cancer construct (darkfield images) ([10]; 10 μM drug): almost no tissue present
IC50 ([11]; read-out: IC50 2D): 80 nM
IC50 [11, 13]: 5560 nM
IC50 ([11]; read-out: IC50 Microspheres): 290 nM
IC50 ([12]; read-out: IC50 2D): 160 nM
IC50 [12, 13]: 3810 nM
IC50 ([12]; read-out: IC50 Microspheres): 180 nM

Reference: patent US10995186B2, “Light-activated preparation of hydrogels” (Otago Innovation Limited, priority 2015, dated 2021)
